Data as given in ChEMBL document CHEMBL2439971, “Design, synthesis and antiproliferative evaluation of fluorenone analogs with DNA topoisomerase I inhibitory properties” (Bioorg Med Chem, 2013).
Calls of active or inactive are those of the source. No cut-off for these calls is given here.

How the values were obtained:
SK-MEL-2 = assay: Cytotoxicity against human SK-MEL-2 cells at 10 uM after 48 hrs by sulforhodamine B assay relative to control; format: functional
Malme-3M = assay: Cytotoxicity against human MALME-3M cells at 10 uM after 48 hrs by sulforhodamine B assay relative to control; format: functional
SNB-75 = assay: Cytotoxicity against human SNB75 cells at 10 uM after 48 hrs by sulforhodamine B assay relative to control; format: functional
K562 = assay: Cytotoxicity against human K562 cells at 10 uM after 48 hrs by sulforhodamine B assay relative to control; format: functional
HL-60(TB) = assay: Cytotoxicity against human HL-60(TB) cells at 10 uM after 48 hrs by sulforhodamine B assay relative to control; format: functional
RXF 393 = assay: Cytotoxicity against human RXF393 cells at 10 uM after 48 hrs by sulforhodamine B assay relative to control; format: functional
UACC-257 = assay: Cytotoxicity against human UACC257 cells at 10 uM after 48 hrs by sulforhodamine B assay relative to control; format: functional
BT-549 = assay: Cytotoxicity against human BT549 cells at 10 uM after 48 hrs by sulforhodamine B assay relative to control; format: functional
CAKI-1 = assay: Cytotoxicity against human CAKI-1 cells at 10 uM after 48 hrs by sulforhodamine B assay relative to control; format: functional
SW-620 = assay: Cytotoxicity against human SW620 cells at 10 uM after 48 hrs by sulforhodamine B assay relative to control; format: functional
HOP-62 = assay: Cytotoxicity against human HOP62 cells at 10 uM after 48 hrs by sulforhodamine B assay relative to control; format: functional
SN12C = assay: Cytotoxicity against human SN12C cells at 10 uM after 48 hrs by sulforhodamine B assay relative to control; format: functional
SF-539 = assay: Cytotoxicity against human SF539 cells at 10 uM after 48 hrs by sulforhodamine B assay relative to control; format: functional
OVCAR-4 = assay: Cytotoxicity against human OVCAR4 cells at 10 uM after 48 hrs by sulforhodamine B assay relative to control; format: functional
IGROV-1 = assay: Cytotoxicity against human IGROV1 cells at 10 uM after 48 hrs by sulforhodamine B assay relative to control; format: functional
CCRF-CEM = assay: Cytotoxicity against human CCRF-CEM cells at 10 uM after 48 hrs by sulforhodamine B assay relative to control; format: functional
NCI-H23 = assay: Cytotoxicity against human NCI-H23 cells at 10 uM after 48 hrs by sulforhodamine B assay relative to control; format: functional
SNB-19 = assay: Cytotoxicity against human SNB19 cells at 10 uM after 48 hrs by sulforhodamine B assay relative to control; format: functional
OVCAR-5 = assay: Cytotoxicity against human OVCAR5 cells at 10 uM after 48 hrs by sulforhodamine B assay relative to control; format: functional
UO-31 = assay: Cytotoxicity against human UO31 cells at 10 uM after 48 hrs by sulforhodamine B assay relative to control; format: functional
HCC 2998 = assay: Cytotoxicity against human HCC2998 cells at 10 uM after 48 hrs by sulforhodamine B assay relative to control; format: functional
U-251 = assay: Cytotoxicity against human U251 cells at 10 uM after 48 hrs by sulforhodamine B assay relative to control; format: functional
SF-268 = assay: Cytotoxicity against human SF268 cells at 10 uM after 48 hrs by sulforhodamine B assay relative to control; format: functional
HCT-15 = assay: Cytotoxicity against human HCT15 cells at 10 uM after 48 hrs by sulforhodamine B assay relative to control; format: functional
MCF7 = assay: Cytotoxicity against human MCF7 cells at 10 uM after 48 hrs by sulforhodamine B assay relative to control; format: functional
SK-MEL-28 = assay: Cytotoxicity against human SK-MEL-28 cells at 10 uM after 48 hrs by sulforhodamine B assay relative to control; format: functional
[1] = Cytotoxicity against human EKVX cells at 10 uM after 48 hrs by sulforhodamine B assay relative to control; format: functional
786-0 = assay: Cytotoxicity against human 786-0 cells at 10 uM after 48 hrs by sulforhodamine B assay relative to control; format: functional
NCI-H460 = assay: Cytotoxicity against human NCI-H460 cells at 10 uM after 48 hrs by sulforhodamine B assay relative to control; format: functional
HT-29 = assay: Cytotoxicity against human HT-29 cells at 10 uM after 48 hrs by sulforhodamine B assay relative to control; format: functional
PC-3 [2] = assay: Cytotoxicity against human PC3 cells at 10 uM after 48 hrs by sulforhodamine B assay relative to control; format: functional
KM12 = assay: Cytotoxicity against human KM12 cells at 10 uM after 48 hrs by sulforhodamine B assay relative to control; format: functional
M14 = assay: Cytotoxicity against human M14 cells at 10 uM after 48 hrs by sulforhodamine B assay relative to control; format: functional
MOLT-4 = assay: Cytotoxicity against human MOLT4 cells at 10 uM after 48 hrs by sulforhodamine B assay relative to control; format: functional
COLO 205 = assay: Cytotoxicity against human COLO205 cells at 10 uM after 48 hrs by sulforhodamine B assay relative to control; format: functional
NCI/ADR-RES = assay: Cytotoxicity against human NCI/ADR-RES cells at 10 uM after 48 hrs by sulforhodamine B assay relative to control; format: functional
PC-3 [3] = assay: Cytotoxicity against human PC3 cells after 48 hrs by sulforhodamine B assay; format: functional, cell-based; details: PC-3, 48 h
RPMI-8226 = assay: Cytotoxicity against human RPMI8226 cells at 10 uM after 48 hrs by sulforhodamine B assay relative to control; format: functional
T47D = assay: Cytotoxicity against human T47D cells at 10 uM after 48 hrs by sulforhodamine B assay relative to control; format: functional
HCT-116 = assay: Cytotoxicity against human HCT116 cells at 10 uM after 48 hrs by sulforhodamine B assay relative to control; format: functional
MDA-MB-435 = assay: Cytotoxicity against human MDA-MB-435 cells at 10 uM after 48 hrs by sulforhodamine B assay relative to control; format: functional
NCI-H322M = assay: Cytotoxicity against human NCI-H322M cells at 10 uM after 48 hrs by sulforhodamine B assay relative to control; format: functional
OVCAR-3 = assay: Cytotoxicity against human OVCAR3 cells at 10 uM after 48 hrs by sulforhodamine B assay relative to control; format: functional
SR = assay: Cytotoxicity against human SR cells at 10 uM after 48 hrs by sulforhodamine B assay relative to control; format: functional
MDA-MB-231 = assay: Cytotoxicity against human MDA-MB-231 cells at 10 uM after 48 hrs by sulforhodamine B assay relative to control; format: functional
UACC-62 = assay: Cytotoxicity against human UACC62 cells at 10 uM after 48 hrs by sulforhodamine B assay relative to control; format: functional
[4] = Cytotoxicity against human Hs 578T cells at 10 uM after 48 hrs by sulforhodamine B assay relative to control; format: functional
SF-295 = assay: Cytotoxicity against human SF295 cells at 10 uM after 48 hrs by sulforhodamine B assay relative to control; format: functional
ACHN = assay: Cytotoxicity against human ACHN cells at 10 uM after 48 hrs by sulforhodamine B assay relative to control; format: functional
TK-10 = assay: Cytotoxicity against human TK10 cells at 10 uM after 48 hrs by sulforhodamine B assay relative to control; format: functional
DU-145 = assay: Cytotoxicity against human DU145 cells at 10 uM after 48 hrs by sulforhodamine B assay relative to control; format: functional
NCI-H522 = assay: Cytotoxicity against human NCI-H522 cells at 10 uM after 48 hrs by sulforhodamine B assay relative to control; format: functional
Homo sapiens = species: Homo sapiens; assay: Inhibition of telomerase (unknown origin) at 10 uM TRAP assay
A549 = assay: Cytotoxicity against human A549 cells at 10 uM after 48 hrs by sulforhodamine B assay relative to control; format: functional
OVCAR-8 = assay: Cytotoxicity against human OVCAR8 cells at 10 uM after 48 hrs by sulforhodamine B assay relative to control; format: functional
SK-MEL-5 = assay: Cytotoxicity against human SK-MEL-5 cells at 10 uM after 48 hrs by sulforhodamine B assay relative to control; format: functional
NCI-H226 = assay: Cytotoxicity against human NCI-H226 cells at 10 uM after 48 hrs by sulforhodamine B assay relative to control; format: functional
MDA-MB-468 = assay: Cytotoxicity against human MDA-MB-468 cells at 10 uM after 48 hrs by sulforhodamine B assay relative to control; format: functional
LOX IMVI = assay: Cytotoxicity against human LOXIMVI cells at 10 uM after 48 hrs by sulforhodamine B assay relative to control; format: functional

## O=C(CN1CCCC1)Nc1ccc2c(c1)C(=O)c1cc(NC(=O)CN3CCCC3)ccc1-2
SK-MEL-2
  Activity: 106.76%
Malme-3M
  Activity: 130.28%
SNB-75
  Activity: 88.15%
K562
  Activity: 68.94%
HL-60(TB)
  Activity: 84.5%
RXF 393
  Activity: 88.07%
UACC-257
  Activity: 106.11%
BT-549
  Activity: 101.36%
CAKI-1
  Activity: 91.43%
SW-620
  Activity: 68.12%
HOP-62
  Activity: 88.02%
SN12C
  Activity: 87.69%
SF-539
  Activity: 99.41%
OVCAR-4
  Activity: 71.07%
IGROV-1
  Activity: 86.73%
CCRF-CEM
  Activity: 68.3%
NCI-H23
  Activity: 93.89%
SNB-19
  Activity: 96.18%
OVCAR-5
  Activity: 128.57%
UO-31
  Activity: 69.71%
HCC 2998
  Activity: 90.44%
U-251
  Activity: 81.2%
SF-268
  Activity: 107.06%
HCT-15
  Activity: 99.02%
MCF7
  Activity: 62.7%
SK-MEL-28
  Activity: 103.08%
[1]
  Activity: 100.27%
786-0
  Activity: 90.88%
NCI-H460
  Activity: 88.56%
HT-29
  Activity: 19.04%
PC-3 [2]
  Activity: 85.69%
KM12
  Activity: 85.82%
M14
  Activity: 103.87%
MOLT-4
  Activity: 61.26%
COLO 205
  Activity: 89.07%
NCI/ADR-RES
  Activity: 93.68%
PC-3 [3]
  IC50: 7.78 µM
RPMI-8226
  Activity: 78.34%
T47D
  Activity: 105.79%
HCT-116
  Activity: 79.74%
MDA-MB-435
  Activity: 84.99%
NCI-H322M
  Activity: 73.45%
OVCAR-3
  Activity: 113.24%
SR
  Activity: 74.15%
MDA-MB-231
  Activity: 73.88%
UACC-62
  Activity: 103.81%
[4]
  Activity: 100.68%
SF-295
  Activity: 86.51%
ACHN
  Activity: 102.77%
TK-10
  Activity: 91.73%
DU-145
  Activity: 83.47%
NCI-H522
  Activity: 72.46%
Homo sapiens
  inhibition: inactive
A549
  Activity: 76.89%
OVCAR-8
  Activity: 69.01%
SK-MEL-5
  Activity: 102.03%
NCI-H226
  Activity: 104.39%
MDA-MB-468
  Activity: 99.42%
LOX IMVI
  Activity: 90.25%
